Experimental data reported in ChEMBL document CHEMBL1201862, “PubChem BioAssay data set” (2004).
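1) Cells in 96-well plates. 2) Compound, 48 h, 5 concentrations. 3) Linear interpolation between surrounding doses. 4) Unreached endpoint = highest concentration. Here, GI50 denotes the concentration required for 50% inhibition of growth.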 Calls of active or inactive are those of the source. Rule as the data show it: active = GI50 up to about 1.1 µM and inactive = higher.

Key:
Assay in all cases: NCI-60 cell line screen, 48 h
HL-60 = test system: HL-60
OVCAR-3 = test system: OVCAR-3
A498 = test system: A498
OVCAR-5 = test system: OVCAR-5
RXF 393 = test system: RXF 393
IGROV-1 = test system: IGROV-1
BT-549 = test system: BT-549
DU-145 = test system: DU-145
M14 = test system: M14
SW-620 = test system: SW-620
SF-539 = test system: SF-539
SNB-75 = test system: SNB-75
UACC-257 = test system: UACC-257
OVCAR-8 = test system: OVCAR-8
MOLT-4 = test system: MOLT-4
SK-MEL-28 = test system: SK-MEL-28
NCI-H226 = test system: NCI-H226
CAKI-1 = test system: CAKI-1
UO-31 = test system: UO-31
HCC 2998 = test system: HCC 2998

SMILES	GI50 (HL-60)	GI50 (OVCAR-3)	GI50 (A498)	GI50 (OVCAR-5)	GI50 (RXF 393)	GI50 (IGROV-1)	GI50 (BT-549)	GI50 (DU-145)	GI50 (M14)	GI50 (SW-620)	GI50 (SF-539)	GI50 (SNB-75)	GI50 (UACC-257)	GI50 (OVCAR-8)	GI50 (MOLT-4)	GI50 (SK-MEL-28)	GI50 (NCI-H226)	GI50 (CAKI-1)	GI50 (UO-31)	GI50 (HCC 2998)
O=C(O)COc1c(Cl)cc(Cl)c2cccnc12	> 100 µM (inactive)	> 100 µM (inactive)	> 100 µM (inactive)	> 100 µM (inactive)	> 100 µM (inactive)	96.4 µM (inactive)	> 100 µM (inactive)	> 100 µM (inactive)	> 100 µM (inactive)	> 100 µM (inactive)	> 100 µM (inactive)	> 100 µM (inactive)	> 100 µM (inactive)	> 100 µM (inactive)	> 100 µM (inactive)	> 100 µM (inactive)	> 100 µM (inactive)	> 100 µM (inactive)	> 100 µM (inactive)	
NC1=NC(c2ccc(Cl)cc2)N(c2ccc(S(N)(=O)=O)cc2)C(N)=N1 (stereo not drawn)		> 100 µM (inactive)	> 100 µM (inactive)	> 100 µM (inactive)	> 100 µM (inactive)	> 100 µM (inactive)	> 100 µM (inactive)	> 100 µM (inactive)	> 100 µM (inactive)	> 100 µM (inactive)	> 100 µM (inactive)	> 100 µM (inactive)	> 100 µM (inactive)	> 100 µM (inactive)	> 100 µM (inactive)	> 100 µM (inactive)	> 100 µM (inactive)	> 100 µM (inactive)	> 100 µM (inactive)	
FC(F)(Sc1ncccn1)c1nc2ccccc2o1		> 100 µM (inactive)	> 100 µM (inactive)	> 100 µM (inactive)	79.3 µM (inactive)	> 100 µM (inactive)	> 100 µM (inactive)	> 100 µM (inactive)	> 100 µM (inactive)	> 100 µM (inactive)	> 100 µM (inactive)	22 µM (inactive)	> 100 µM (inactive)	> 100 µM (inactive)	57.3 µM (inactive)	> 100 µM (inactive)	> 100 µM (inactive)	> 100 µM (inactive)	99.3 µM (inactive)	> 100 µM (inactive)
Cc1nnc2n1N=C(c1cc(F)c(Cl)cc1Cl)/C(=C/c1ccc(Cl)cc1)S2	26.4 µM (inactive)	12.7 µM (inactive)	19.1 µM (inactive)	6.46 µM (inactive)	17.2 µM (inactive)	19.6 µM (inactive)	18.7 µM (inactive)	17.1 µM (inactive)	17.9 µM (inactive)	37.7 µM (inactive)	25.9 µM (inactive)		17 µM (inactive)	16.1 µM (inactive)	9.91 µM (inactive)	38.8 µM (inactive)	23.2 µM (inactive)	10.1 µM (inactive)	11.3 µM (inactive)	13.4 µM (inactive)
Cc1ccc2c(c1)SC1=Nc3sc4cc(C)ccc4[n+]3CN12	2.07 µM (inactive)	1.01 µM (active)	11.1 µM (inactive)	18.3 µM (inactive)	78.5 µM (inactive)	16.1 µM (inactive)	2.43 µM (inactive)	24.1 µM (inactive)	3.59 µM (inactive)	10.4 µM (inactive)	3.73 µM (inactive)	11.4 µM (inactive)	2.18 µM (inactive)	3.04 µM (inactive)	< 0.01 µM (active)	13 µM (inactive)	15.8 µM (inactive)		35.6 µM (inactive)	1.75 µM (inactive)
CCCCCCCCCCCCCCCCCCNc1nc(=O)n(C2CC(O)C(COP(=O)(O)OCC3OC(n4ccc(N)nc4=O)C(O)C3O)O2)cc1F (stereo not drawn)		> 100 µM (inactive)	17.2 µM (inactive)	52.6 µM (inactive)	> 100 µM (inactive)	30.3 µM (inactive)	31.1 µM (inactive)	25.1 µM (inactive)	9.35 µM (inactive)	> 100 µM (inactive)	32.6 µM (inactive)	> 100 µM (inactive)	> 100 µM (inactive)	4.13 µM (inactive)	25.9 µM (inactive)	> 100 µM (inactive)	> 100 µM (inactive)	92.5 µM (inactive)	24.5 µM (inactive)	11.8 µM (inactive)
O=C1CCc2cc3c(cc21)CC1(Cc2cc4c(cc2C1)CCCC4)C3	27.9 µM (inactive)	53.6 µM (inactive)	61.5 µM (inactive)	> 100 µM (inactive)	16 µM (inactive)	97.5 µM (inactive)	> 100 µM (inactive)	> 100 µM (inactive)	30.3 µM (inactive)	29.1 µM (inactive)	> 100 µM (inactive)	14.6 µM (inactive)	35.6 µM (inactive)	> 100 µM (inactive)	> 100 µM (inactive)	> 100 µM (inactive)			> 100 µM (inactive)	69.8 µM (inactive)
CSc1nc(Cl)c2c(n1)Sc1nc3ccccc3n1C2O (stereo not drawn)		5.3 µM (inactive)	> 79.1 µM (inactive)	4.92 µM (inactive)	1.58 µM (inactive)	3.87 µM (inactive)	4.73 µM (inactive)	11.4 µM (inactive)	3.46 µM (inactive)	3.52 µM (inactive)	1.83 µM (inactive)	10.6 µM (inactive)	13.5 µM (inactive)	2.84 µM (inactive)	3.48 µM (inactive)	6.79 µM (inactive)	29.1 µM (inactive)	1.85 µM (inactive)	3.44 µM (inactive)	3.91 µM (inactive)
O=C(C=P(c1ccccc1)(c1ccccc1)c1ccccc1)c1cccc(-c2cccc([N+](=O)[O-])c2)c1	1.76 µM (inactive)	3.03 µM (inactive)	1.83 µM (inactive)	3.1 µM (inactive)	5.66 µM (inactive)	2.94 µM (inactive)	4.74 µM (inactive)	6.78 µM (inactive)	3.13 µM (inactive)	3.33 µM (inactive)	4.56 µM (inactive)	1.51 µM (inactive)		3.57 µM (inactive)	1.68 µM (inactive)	3.1 µM (inactive)		1.86 µM (inactive)	3.11 µM (inactive)	3.27 µM (inactive)
CCOC(=O)c1cc(Sc2ccc(N)c(C(=O)OCC)c2)ccc1N	16.7 µM (inactive)	24.8 µM (inactive)	21.6 µM (inactive)	12.1 µM (inactive)	11.5 µM (inactive)	18.6 µM (inactive)	> 100 µM (inactive)	> 100 µM (inactive)	> 100 µM (inactive)	> 100 µM (inactive)	24.9 µM (inactive)	12.3 µM (inactive)	> 100 µM (inactive)	20.7 µM (inactive)	8.24 µM (inactive)	> 100 µM (inactive)	16.7 µM (inactive)	7.69 µM (inactive)		
Nc1nc(NNc2ccc(Cl)c(Cl)c2)cc(=O)[nH]1	26.4 µM (inactive)	23 µM (inactive)	> 100 µM (inactive)	43.4 µM (inactive)	25.5 µM (inactive)	28.4 µM (inactive)	33.7 µM (inactive)	35.8 µM (inactive)	34.2 µM (inactive)	22.8 µM (inactive)	99.1 µM (inactive)		43.2 µM (inactive)	44.9 µM (inactive)	19.4 µM (inactive)	52.1 µM (inactive)	78.9 µM (inactive)		29.9 µM (inactive)	19.8 µM (inactive)
Cc1ccc(S(=O)(=O)N/N=C/C2(c3ccccc3)c3ccccc3-c3ccccc32)cc1	> 100 µM (inactive)	7.71 µM (inactive)	18.6 µM (inactive)	12.4 µM (inactive)	13 µM (inactive)	10.5 µM (inactive)	14.2 µM (inactive)	12.1 µM (inactive)	10.9 µM (inactive)	15 µM (inactive)	15.8 µM (inactive)		15.6 µM (inactive)	8.97 µM (inactive)	7.18 µM (inactive)	14.8 µM (inactive)	14.7 µM (inactive)	12.6 µM (inactive)	5.82 µM (inactive)	13.3 µM (inactive)
COc1ccc2c3c1OC1C34CCN(C)C(C2)C4=CC(I)C1(OC)OC (stereo not drawn)		5.87 µM (inactive)	22.9 µM (inactive)	18.6 µM (inactive)	10.5 µM (inactive)	8.71 µM (inactive)	21.6 µM (inactive)	10.8 µM (inactive)	14.3 µM (inactive)	2.68 µM (inactive)	1.79 µM (inactive)	19.6 µM (inactive)	13.2 µM (inactive)	4.09 µM (inactive)	3.15 µM (inactive)	12.1 µM (inactive)	18.6 µM (inactive)	12.9 µM (inactive)	14.9 µM (inactive)	10.2 µM (inactive)
CCCc1c(O)nc(Nc2nc3ccccc3[nH]2)[nH]c1=O	84.9 µM (inactive)		> 100 µM (inactive)	> 100 µM (inactive)	> 100 µM (inactive)	> 100 µM (inactive)	> 100 µM (inactive)	> 100 µM (inactive)	> 100 µM (inactive)	> 100 µM (inactive)	> 100 µM (inactive)	> 100 µM (inactive)	> 100 µM (inactive)	> 100 µM (inactive)	> 100 µM (inactive)		> 100 µM (inactive)	> 100 µM (inactive)	> 100 µM (inactive)	
CC1(C)N=C(N)N=C(N)N1c1cccc(OCc2cccc([N+](=O)[O-])c2)c1	9.95 µM (inactive)	22.9 µM (inactive)	99.5 µM (inactive)	> 30.6 µM (inactive)	> 100 µM (inactive)	7.87 µM (inactive)	> 53.1 µM (inactive)	> 38.5 µM (inactive)	51.8 µM (inactive)	> 85.9 µM (inactive)	17.6 µM (inactive)	> 57 µM (inactive)	4.29 µM (inactive)	99.8 µM (inactive)	1.22 µM (inactive)	> 55.2 µM (inactive)	> 100 µM (inactive)	> 100 µM (inactive)	> 100 µM (inactive)	
